Assay results published in ChEMBL document CHEMBL1146404, “Antihyperglycemic activity of phenolics from Pterocarpus marsupium” (1997).

Columns and labels:
Assay type in all cases: functional
[1] = system: Rattus norvegicus; assay: Antihyperglycemic activity in streptozotocin-induced nonfasted diabetic rat assessed as decrease in blood glucose level at 20 mg/kg, po administered for 3 days measured 1 hr after last dose; parameters: scale not given: the % may be the effect or the level left
[2] = system: Rattus norvegicus; assay: Effect on nondiabetic rat assessed as blood glucose level per 100 mL at 20 mg/kg, po
[3] = species: Rattus norvegicus; assay: Decrease in body weight in nondiabetic rat; parameters: scale not given: the % may be the effect or the level left
[4] = system: Rattus norvegicus; assay: Antihyperglycemic activity in streptozotocin-induced nonfasted diabetic rat assessed as decrease in blood glucose level at 30 mg/kg, po administered for 3 days measured 1 hr after last dose; parameters: scale not given: the % may be the effect or the level left

Structure (SMILES) | Activity [1] | Activity [2] | Activity [3] | Activity [4]
COc1cc(O)cc2c1C(=O)C(O)(Cc1ccc(O)cc1)O2 (configuration not stated) [CARPUSIN] | 33% | 64% | 20% | –
CN(C)C(=N)NC(=N)N [METFORMIN] | – | – | – | 48%
COc1cc(/C=C/c2ccc(O)cc2)cc(OC)c1 [PTEROSTILBENE] | 11% | 65% | 20% | –
